Active and inactive are the calls of the source. No cut-off for these calls is given here.
Key:
[1] = biological target: Lysosomal alpha-glucosidase (Homo sapiens) (UniProt P10253); test: Activation of purified human recombinant acid alpha-glucosidase using resorufin alpha-D-glucopyranoside as substrate at 100 uM after 45 mins relative to basal
[2] = biological target: Lysosomal alpha-glucosidase (Homo sapiens) (UniProt P10253); test: Activation of purified human recombinant acid alpha-glucosidase using glycogen as substrate up to 100 uM after 45 mins
[3] = biological target: T1, Alpha-galactosidase A (Homo sapiens) (UniProt P06280); test: Activation of purified alpha-galactosidase A using 4-methylumbelliferyl-alpha-D-galactoside as substrate after 45 mins relative to basal
T1 sequence (whole entry): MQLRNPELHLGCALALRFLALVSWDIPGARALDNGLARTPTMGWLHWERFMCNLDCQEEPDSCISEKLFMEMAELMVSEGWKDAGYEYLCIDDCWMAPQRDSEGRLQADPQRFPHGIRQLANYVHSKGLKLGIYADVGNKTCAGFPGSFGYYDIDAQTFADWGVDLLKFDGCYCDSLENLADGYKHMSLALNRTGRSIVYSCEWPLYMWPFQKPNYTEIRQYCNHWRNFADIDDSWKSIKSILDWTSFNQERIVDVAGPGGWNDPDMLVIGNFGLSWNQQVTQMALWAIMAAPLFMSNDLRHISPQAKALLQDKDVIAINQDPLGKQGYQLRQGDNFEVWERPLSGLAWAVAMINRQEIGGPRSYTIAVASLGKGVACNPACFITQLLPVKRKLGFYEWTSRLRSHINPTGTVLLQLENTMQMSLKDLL

[4] = biological target: Lysosomal alpha-glucosidase (Homo sapiens) (UniProt P10253); test: Activation of purified human recombinant acid alpha-glucosidase using 4-methylumbelliferyl-alpha-D-glucopyranoside as substrate after 45 mins relative to basal
[5] = biological target: Lysosomal alpha-glucosidase (Homo sapiens) (UniProt P10253); test: Activation of purified human recombinant acid alpha-glucosidase using resorufin alpha-D-glucopyranoside as substrate after 45 mins relative to basal
[6] = biological target: Lysosomal alpha-glucosidase (Homo sapiens) (UniProt P10253); test: Activation of purified acid alpha-glucosidase in human spleen homogenates using resorufin alpha-D-glucopyranoside as substrate after 45 mins relative to basal
[7] = biological target: Lysosomal alpha-glucosidase (Homo sapiens) (UniProt P10253); test: Activation of purified acid alpha-glucosidase in human spleen homogenates using resorufin alpha-D-glucopyranoside as substrate at 10 uM after 45 mins relative to basal
[8] = biological target: Lysosomal alpha-glucosidase (Homo sapiens) (UniProt P10253); test: Activation of purified acid alpha-glucosidase in human spleen homogenates using 4-methylumbelliferyl-alpha-D-glucopyranoside as substrate after 45 mins relative to basal

CCCN1CNc2c(c(=O)[nH]c(=S)n2CCc2cc(C)cc(C)c2)C1
Activity [1]: 218%

CCCN1CNc2c(c(=O)[nH]c(=S)n2CC(C)C)C1
Activity [1]: inactive

CCCN1CNc2c(c(=O)[nH]c(=S)n2CCc2cc(Cl)ccc2Cl)C1
Activity [1]: 325%

CCCN1CNc2c(c(=O)[nH]c(=S)n2CC(C)(C)C)C1
Activity [1]: inactive

COc1ccc(CCn2c(N)cc(=O)[nH]c2=S)cc1OC
Activity [1]: 32.1%

CCCN1CNc2c(c(=O)[nH]c(=S)n2CCc2cccc(OC)c2OC)C1
Activity [1]: 262%

CCCN1CNc2c(c(=O)[nH]c(=S)n2CCCc2ccccc2)C1
Activity [1]: 166%

Clc1ncc(C#Cc2ccccc2)c2ncncc12
Activity [1]: inactive

CCCN1CNc2c(c(=O)[nH]c(=S)n2CCc2ccc(OC)cc2OC)C1
Activity [1]: 308%

CCCN1CNc2c(c(=O)[nH]c(=S)n2CCc2ccc(C)cc2)C1
Activity [1]: 300%

CCCN1CNc2c(c(=O)[nH]c(=S)n2CCc2cc(Cl)cc(Cl)c2)C1
Activity [1]: 316%

CCCN1CNc2c(c(=O)[nH]c(=S)n2CCc2ccc(C)cc2C)C1
Activity [1]: 323%

CCCN1CNc2c(c(=O)[nH]c(=S)n2CCc2ccccc2C)C1
Activity [1]: 136%

CCCN1CNc2c(c(=O)[nH]c(=S)n2CCc2cc(C)ccc2C)C1
Activity [1]: 245%

CCCN1CNc2c(c(=O)[nH]c(=S)n2CCc2ccccc2OC)C1
Activity [1]: 243%

COc1ccc(CCn2c3c(c(=O)[nH]c2=O)C(NC(=O)c2cccs2)(C(F)(F)F)C(=O)N3)cc1OC (stereo unspecified)
Activity [1]: 64.2%

COc1ccc(CCn2c(=S)[nH]c(=O)c3nc[nH]c32)cc1OC
Activity [1]: inactive

CCCN1CNc2c(c(=O)[nH]c(=S)n2CCc2ccc(Cl)c(Cl)c2)C1
Activity [1]: 88.8%

CCCN1CNc2c(c(=O)[nH]c(=S)n2CCc2cccc(Cl)c2)C1
Activity [1]: 197%

CCCN1CNc2c(c(=O)[nH]c(=S)n2CCc2cccc(OC)c2)C1
Activity [1]: 302%

CCCN1CNc2c(c(=O)[nH]c(=S)n2CCc2ccc3c(c2)OCCO3)C1
Activity [1]: 328%

CCCN1CNc2c(c(=O)[nH]c(=S)n2CCc2cc(OC)ccc2OC)C1
Activity [1]: 327%

CCCN1CNc2c(c(=O)[nH]c(=S)n2CCc2cccc(C)c2)C1
Activity [1]: 295%

CCCN1CNc2c(c(=O)[nH]c(=S)n2CCc2c(OC)cccc2OC)C1
Activity [1]: 227%

CCCN1CNc2c(c(=O)[nH]c(=S)n2Cc2ccc(OCC)c(OCC)c2)C1
Activity [2]: inactive | Activity [3]: inactive | Activity [1]: 365% | Activity [4]: Dose-dependent effect

COc1ccc(CCc2c[nH]c(=O)c3cncnc23)cc1OC
Activity [1]: inactive

CCCN1CNc2c(c(=O)[nH]c(=S)n2CCc2c(C)cccc2C)C1
Activity [1]: 112%

CCCN1CNc2c(c(=O)[nH]c(=S)n2CCc2ccccn2)C1
Activity [1]: 30.6%

CCCN1CNc2c(c(=O)[nH]c(=S)n2CCc2ccc(OCC)c(OCC)c2)C1
Activity [1]: 306%

COc1ccc(CCn2c3c(c(=O)[nH]c2=S)CN(CC(C)C)CN3)cc1OC
Activity [2]: inactive | Activity [1]: 338%

COc1ccc(C#Cc2c[nH]c(=O)c3cncnc23)cc1OC
Activity [1]: inactive

CCCN1CNc2c(c(=O)[nH]c(=S)n2CCc2ccc(Cl)cc2Cl)C1
Activity [1]: 321%

CCCN1CNc2c(c(=O)[nH]c(=S)n2CCc2cccs2)C1
Activity [1]: 221%

CCCN1CNc2c(c(=O)[nH]c(=O)n2CCc2ccc(OC)c(OC)c2)C1
Activity [1]: 297%

CCCN1CNc2c(c(=O)[nH]c(=S)n2CCC)C1
Activity [1]: inactive

COc1ccc(CCn2c(=S)[nH]c(=O)c3c(C)cc(C)nc32)cc1OC
Activity [1]: inactive

CCCCn1c(N)c(NCC)c(=O)[nH]c1=O
Activity [1]: inactive

COc1ccc(CCn2c3c(c(=O)[nH]c2=S)CN(C(C)C)CN3)cc1OC
Activity [3]: inactive | Activity [1]: 234% | Activity [4]: Dose-dependent effect

COc1ccc(CCn2c(=S)[nH]c(=O)c3nccnc32)cc1OC
Activity [1]: inactive

COc1ccc(C(=O)NC2(C(F)(F)F)C(=O)Nc3c2c(=O)[nH]c(=O)n3CCc2ccc(OC)c(OC)c2)cc1 (stereo unspecified)
Activity [1]: 121%

CCCN1CNc2c(c(=O)[nH]c(=S)n2CCc2ccc(C)c(C)c2)C1
Activity [1]: 338%

O=c1[nH]cc(CCc2ccccc2)c2ncncc12
Activity [1]: inactive

CCCN1CNc2c(c(=O)[nH]c(=S)n2CCc2cc(OC)cc(OC)c2)C1
Activity [1]: 332%

COc1ccc(CCn2c3c(c(=O)[nH]c2=S)CN(C)CN3)cc1OC
Activity [1]: 282%

CCCN1CNc2c(c(=O)[nH]c(=S)n2CCc2ccccc2)C1
Activity [1]: 142%

CCCN1CNc2c(c(=O)[nH]c(=S)n2CCc2cccc(Cl)c2Cl)C1
Activity [2]: inactive | Activity [3]: inactive | Activity [1]: 346% | Activity [4]: Dose-dependent effect

CCCN1CNc2c(c(=O)[nH]c(=S)n2CCc2ccc(OC)c(OC)c2)C1
Activity [2]: inactive | Activity [3]: inactive | Activity [5]: Dose-dependent effect | Activity [1]: 356% | Activity [6]: Dose-dependent effect | Activity [4]: Dose-dependent effect | fold change (FC) [7]: 1.5 | Activity [8]: Dose-dependent effect

COc1ccc(CCn2c3c(c(=O)[nH]c2=S)CN(c2ccccc2)CN3)cc1OC
Activity [1]: 275%

CCCN1CNc2c(c(=O)[nH]c(=S)n2CCc2cccc(C)c2C)C1
Activity [1]: 300%

COc1ccc(C#Cc2cnc(Cl)c3cncnc23)cc1OC
Activity [1]: inactive

CCCN1CNc2c(c(=O)[nH]c(=S)n2CCc2ccccc2Cl)C1
Activity [1]: 311%

CCCN1CNc2c(c(=O)[nH]c(=S)n2CCc2c(Cl)cccc2Cl)C1
Activity [2]: inactive | Activity [3]: inactive | Activity [1]: 332% | Activity [4]: Dose-dependent effect

CCCN1CNc2c(c(=O)[nH]c(=S)n2CCc2ccc(Cl)cc2)C1
Activity [1]: 120%

O=c1[nH]cc(C#Cc2ccccc2)c2ncncc12
Activity [1]: inactive

COc1ccc(CCn2c3c(c(=O)[nH]c2=S)CN(Cc2ccccc2)CN3)cc1OC
Activity [1]: 335%

CCCN1CNc2c(c(=O)[nH]c(=S)n2CCc2ccsc2)C1
Activity [1]: 192%

CCCN1CNc2c(c(=O)[nH]c(=S)n2CCc2ccc(OC)cc2)C1
Activity [1]: 309%

Source: ChEMBL document CHEMBL1157879
